In patent US20120309773A1, “HETEROCYCLIC COMPOUNDS AS JANUS KINASE INHIBITORS” (priority 2009, published 2012) one finds melting point data, which are given here for five compounds.

What is called melting point is the temperature of the solid-liquid transition.

`O=C(NC1CC1)c1cc(Nc2nc(N3CCCC3c3ccccn3)nc3ccoc23)[nH]n1` (centres unmarked) [Compound 12E, N-cyclopropyl-5-(2-(2-(pyridin-2-yl)pyrrolidin-1-yl)furo[3,2-d]pyrimidin-4-ylamino)-1H-pyrazole-3-carboxamide]: the melting point was determined as 238.4 °C.

Consider `O=C(NC1CCC1)c1cc(Nc2nc(N3CCCC3c3ccccn3)nc3ccoc23)n[nH]1` (centres unmarked) [Compound 14F, N-cyclobutyl-3-(2-(2-(pyridin-2-yl)pyrrolidin-1-yl)furo[3,2-d]pyrimidin-4-ylamino)-1H-pyrazole-5-carboxamide], for which the melting point amounted to 274.3 °C.

`O=C(NC1CCC1)c1cc(Nc2nc(N3CCCC3c3ccccn3)nc3ccoc23)[nH]n1` (centres unmarked) [Compound 13E, N-cyclobutyl-5-(2-(2-(pyridin-2-yl)pyrrolidin-1-yl)furo[3,2-d]pyrimidin-4-ylamino)-1H-pyrazole-3-carboxamide] came in with a melting point of 250.1 °C.

Compound `O=C(NC1CC1)c1cc(Nc2nc(N3CCC[C@H]3CO)nc3ccoc23)n[nH]1` [Compound 15C, (S)—N-cyclopropyl-3-(2-(2-(hydroxymethyl)pyrrolidin-1-yl)furo[3,2-d]pyrimidin-4-ylamino)-1H-pyrazole-5-carboxamide] gave a melting point of 96.8 °C. `CN(C)c1nc(Nc2cc(C(=O)NC3CCC3)n[nH]2)c2occc2n1` [Compound 19A, N-cyclobutyl-5-(2-(dimethylamino)furo[3,2-d]pyrimidin-4-ylamino)-1H-pyrazole-3-carboxamide] displayed a melting point of 270.8 °C.
